The text below walks through data of paper PMC11484942, “Rumicidins are a family of mammalian host-defense peptides plugging the 70S ribosome exit tunnel” (Nature Communications, 2024).

For one data set, the system named is P. aeruginosa ATCC 27853. It counts as cell-based, Pseudomonas aeruginosa. The following applies: ATCC 27853, 24 h. The method, then:
(§1) The reduction of resazurin to resorufin was recorded.

Data set [1] deals with Proteus mirabilis XDR CI 3423. Type of data set: cell-based. To be noted: XDR CI 3423, 24 h. On the procedure:
as §1

The test system of data set [2] is Mycobacterium smegmatis mc(2)155. It counts as cell-based. The following applies: Mycobacterium mc(2)155, 24 h. The method, then:
as §1

Data set [3] concerns E. coli 1057 R2 (rpoS^Q3stop, macB^N470D). The following applies: MHB + 0.9% NaCl. In short, it runs like this:
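Broth microdilution (CLSI-based) used 10^6 CFU/mL mid-log cells in MHB with or without added NaCl, and peptides serially diluted in 0.1% BSA at 37 °C. Resistance induction used daily serial passage from sub-MIC wells, followed by 3 drug-free passages before the final MIC.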

A further data set has as its system M. luteus B-1314. Type of data set: cell-based, Micrococcus luteus. To be noted: B-1314, 24 h. On the procedure:
as §1

The test system of the next data set is S. aureus ATCC 29213. It counts as cell-based, Staphylococcus aureus. The following applies: ATCC 29213, 24 h. The method, then:
as §1

The test system of data set [4] is E. coli ATCC 25922. Put plainly: Systemic septicemia infection mouse model. To be noted: 10 mg/kg IP once (1 h post-infection); n = 5. Type of data set: in vivo, BALB/c mice. On the procedure: All animal studies were performed at the State Research Center for Applied Microbiology & Biotechnology (SRCAMB) in Obolensk (Russia), approved by the Institutional Bioethics Committee of the SRCAMB (Animal Research Protocol #VP-2022/1) and performed according to the Russian Federal rules and Directive 2010/63/EU of the European Parliament and of the Council. Experiments were performed with female eight- to ten-week-old BALB/c mice (“Andreevka” laboratory animal nursery FMBA, Russia). The animals were housed in groups of 5 in polycarbonate cages, and the following housing conditions were used: 12/12 h dark/light cycle, ambient temperature of 20 ÷ 22 °C, 50% humidity. Food and water were provided ad libitum. In vivo efficacy of rumicidins was tested in the mouse septicemia model induced by E. coli ATCC 25922. Mice were infected with 0.5 mL of bacterial suspension (1 × 10^6 CFU per animal) in saline supplemented with 2.5% mucin (w/v) via intraperitoneal (IP) injection. A total of 4 groups with 5 animals were used. […] The second group received saline (as a vehicle control) and administered IP once (1 h post-infection). Two other groups received rumicidin-1 or rumicidin-3 each administered IP three times (1, 4, and 8 h post-infection) at a dose of 10 mg/kg or of 5 mg/kg, respectively. Survival was monitored for 7 days. After that survived animals were euthanized by CO2 asphyxiation. […]

Data set [5] relates to E. coli ATCC 25922. Type of data set: cell-based, Escherichia coli. The following applies: ATCC 25922, 24 h. The method, then:
as §1

Data set [6] concerns HEK293T (transformed embryonic kidney cells). Briefly: MTT cytotoxicity. To be noted: mean. It counts as cell-based, human. The method, then:
(§2) Hemolytic activity of the peptides was tested against the fresh suspension of human red blood cells (hRBC) using the hemoglobin release assay as described previously. Two experiments were performed with the hRBC from blood samples collected from healthy donors by certified medical personnel upon informed written consent. All procedures were approved by the Ethics Committee of the Institute of Experimental Medicine (protocol 1/20 of 2/27/2020) and comply with the ethical principles of the Declaration of Helsinki. The quantitative data were represented as average means with standard deviations. The colorimetric 3-(4,5-dimethylthiazol-2-yl)-2,5-diphenyltetrazolium bromide (MTT) dye reduction assay was used to determine cytotoxicity of the peptides against human keratinocyte cell line (HaCaT) and transformed human embryonic kidney cells (HEK293T). Both cell lines were purchased from American Type Culture Collection (ATCC). 10^4 cells per well in Dulbecco’s modified Eagle’s medium (DMEM/F12) supplemented with 10% fetal bovine serum (FBS, Invitrogen) were placed into 96-well plates and then cultured in the CO2-incubator (5% CO2, 37 °C). After the media were removed, the peptides were dissolved in 100 µL of the same medium and added to cell cultures at different final concentrations. 20 h later, 20 μL of MTT (5 mg/mL, Sigma) was added to each well, and the plates were incubated for 4 h at 37 °C. Then, the media were discarded and 100 µL DMSO-isopropanol mixture at a ratio of 1:1 (v/v) was added to each well to dissolve the crystallized formazan. The absorbance at 570 nm was measured by a microplate reader AF2200 (Eppendorf). An optical density in the wells containing cells cultured without the peptides was assumed to represent 100% cell viability. Two independent experiments were performed for each peptide.

For another data set, the system named is HaCaT (keratinocytes). Put plainly: MTT cytotoxicity. Type of data set: cell-based, human. On the procedure: as §2
Data set [7] relates to human red blood cells (hRBC). Put plainly: Hemolysis (hemoglobin release assay). Type of data set: cell-based. To be noted: mean. The method, then:
as §2

Another data set relates to E. cloacae XDR CI 4172. It counts as cell-based, Enterobacter cloacae. The following applies: XDR CI 4172, 24 h. On the procedure: as §1

Ends that are not written are not given here.

As usually defined, the MIC is the lowest concentration found to suppress growth. As for RRRPRPPYLPRPRPPPFFPPRL [PR-39[1-22]], the “MIC P. aeruginosa ATCC 27853” value against P. aeruginosa ATCC 27853 is above 32 µM. Moreover, the “MIC Proteus mirabilis XDR CI 3423” value in data set [1] is above 32 µM. Further, in data set [2], the “MICs depending on the test medium” value was 8 to 16 µM and the “Minimum inhibitory concentration (MIC)” value is 8 µM. In addition, the MIC in data set [3] was determined as 32 µM. For the same molecule, in the data set on M. luteus B-1314, the “MIC M. luteus B-1314” value was above 32 µM. For the same molecule, in the data set with S. aureus ATCC 29213, the “MIC S. aureus ATCC 29213” value is above 32 µM.

Consider `O=C(O)c1cn(C2CC2)c2cc(N3CCNCC3)c(F)cc2c1=O` [Ciprofloxacin], for which the survival entry in the data set with E. coli ATCC 25922 [4] was “survival of all mice”.

In the case of RRIRPRPPRLPRPRPRPLPFPR [Bac7[1-22]], the “MIC E. coli ATCC 25922” value against E. coli ATCC 25922 [5] is 1 µM. Also, the HEK293T cell viability in [6] (1 µM) was 111.372%; in data set [6] (2 µM), 111.629%; in data set [6] (4 µM) it was 112.981%; in data set [6] (8 µM), 107.36%; in [6] (16 µM) it was 102.824%; in [6] (32 µM), 100.41%. Further, the HEK293T cell viability in data set [6] (64 µM) is given as 98.194%. In addition, the HaCaT cell viability in the data set with HaCaT (keratinocytes) (1 µM) came out at 99.202%; in the data set with HaCaT (keratinocytes) (2 µM) it was 105.318%; in the data set with HaCaT (keratinocytes) (4 µM), 103.256%; in the data set on HaCaT (keratinocytes) (8 µM) it was 103.504%; in the data set on HaCaT (keratinocytes) (16 µM) it was 102.717%; in the data set on HaCaT (keratinocytes) (32 µM), 102.854%. In addition, in the data set with HaCaT (keratinocytes) (64 µM), the HaCaT cell viability amounted to 101.039%. Further, the MIC in [3] was found to be 32 µM. The Hemolysis in data set [7] (0.25 µM) is on record as 0.017%; in data set [7] (0.5 µM), 0.093%; in data set [7] (1 µM), 0.134%; in data set [7] (2 µM), 0.206%; in [7] (4 µM), 0.371%; in [7] (8 µM), 0.43%. Besides, the Hemolysis in data set [7] (16 µM) is 0.525%; in data set [7] (32 µM), 0.835%; in [7] (64 µM), 1.043%. The “MIC S. aureus ATCC 29213” value in the data set with S. aureus ATCC 29213 is above 32 µM. Moreover, the “MIC E. cloacae XDR CI 4172” value against E. cloacae XDR CI 4172 worked out at 1 µM.
